Data reported in patent publication US8916702B2 (priority 2012, dated 2014).

system: HCV pseudoparticles (genotype 1a HCV E1 and E2 envelope, H77C isolate); assay: microbe, parasite or virus in culture; assay type: cell-based; conditions: Hepatitis C virus, Huh-7, 48 h, HCV pseudoparticle infection of Huh7 cells, luciferase 2 days after infection; average of duplicates

Structure (SMILES) | EC50 [nM]
COc1cc(NC(=O)C(=O)NC[C@H](NC(=O)c2ccc(Nc3nc(NC4(c5ccc(Cl)cc5)CC4)nc(OCC(F)(F)F)n3)cc2)C(=O)O)ccn1 [Compound 1348] | 0.5
O=C(NC[C@H](NC(=O)c1ccc(Nc2nc(NC3(c4ccc(Cl)cc4)CC3)nc(OCC(F)(F)F)n2)cc1)C(=O)O)C(=O)Nc1cc[nH]n1 [Compound 1353] | 1.66

same assay, conditions: Hepatitis C virus, Huh-7, 48 h, read-out: Activity (EC50 class), HCV pseudoparticle infection of Huh7 cells, luciferase 2 days after infection; EC50 expressed as class A/B

Structure (SMILES) | EC50 [nM]
O=C(NCC[C@H](NC(=O)c1ccc(Nc2nc(NC3(c4ccc(Cl)cc4)CC3)nc(OCC(F)(F)F)n2)cc1)C(=O)O)C(=O)NCC1OCCc2ccccc21 (stereo partly shown) [Compound 1341] | 0.01 to 10
O=C(NCC[C@H](NC(=O)c1ccc(Nc2nc(NC3(c4ccc(Cl)cc4)CC3)nc(OCC(F)(F)F)n2)cc1)C(=O)O)C(=O)NCCn1cncn1 [Compound 1342] | 0.01 to 10
O=C(NCC[C@H](NC(=O)c1ccc(Nc2nc(NC3(c4ccc(Cl)cc4)CC3)nc(OCC(F)(F)F)n2)cc1)C(=O)O)C(=O)NCC1CCCc2ccccc21 (stereo partly shown) [Compound 1343] | 0.01 to 10
Cc1nccn1CCNC(=O)C(=O)NCC[C@H](NC(=O)c1ccc(Nc2nc(NC3(c4ccc(Cl)cc4)CC3)nc(OCC(F)(F)F)n2)cc1)C(=O)O [Compound 1344] | 0.01 to 10
O=C(NCC[C@H](NC(=O)c1ccc(Nc2nc(NC3(c4ccc(Cl)cc4)CC3)nc(OCC(F)(F)F)n2)cc1)C(=O)O)C(=O)NCC1CCc2ccccc21 (stereo partly shown) [Compound 1345] | 0.01 to 10
O=C(NCC[C@H](NC(=O)c1ccc(Nc2nc(NC3(c4ccc(Cl)cc4)CC3)nc(OCC(F)(F)F)n2)cc1)C(=O)O)C(=O)NC1(Cc2ccccc2)CC1 [Compound 1346] | 0.01 to 10
COc1ncccc1NC(=O)C(=O)NC[C@H](NC(=O)c1ccc(Nc2nc(NC3(c4ccc(Cl)cc4)CC3)nc(OCC(F)(F)F)n2)cc1)C(=O)O [Compound 1347] | 0.01 to 10
COc1cc(NC(=O)C(=O)NC[C@H](NC(=O)c2ccc(Nc3nc(NC4(c5ccc(Cl)cc5)CC4)nc(OCC(F)(F)F)n3)cc2)C(=O)O)ccn1 [Compound 1348] | 0.01 to 10
COc1ccc(NC(=O)C(=O)NC[C@H](NC(=O)c2ccc(Nc3nc(NC4(c5ccc(Cl)cc5)CC4)nc(OCC(F)(F)F)n3)cc2)C(=O)O)cn1 [Compound 1349] | 0.01 to 10
O=C(NC[C@H](NC(=O)c1ccc(Nc2nc(NC3(c4ccc(Cl)cc4)CC3)nc(OCC(F)(F)F)n2)cc1)C(=O)O)C(=O)Nn1cnnc1 [Compound 1350] | 10 to 1000
Cn1ccc(NC(=O)C(=O)NC[C@H](NC(=O)c2ccc(Nc3nc(NC4(c5ccc(Cl)cc5)CC4)nc(OCC(F)(F)F)n3)cc2)C(=O)O)n1 [Compound 1351] | 0.01 to 10
Cn1ccnc1NC(=O)C(=O)NC[C@H](NC(=O)c1ccc(Nc2nc(NC3(c4ccc(Cl)cc4)CC3)nc(OCC(F)(F)F)n2)cc1)C(=O)O [Compound 1352] | 0.01 to 10
O=C(NC[C@H](NC(=O)c1ccc(Nc2nc(NC3(c4ccc(Cl)cc4)CC3)nc(OCC(F)(F)F)n2)cc1)C(=O)O)C(=O)Nc1cc[nH]n1 [Compound 1353] | 0.01 to 10
O=C(NC[C@H](NC(=O)c1ccc(Nc2nc(NC3(c4ccc(Cl)cc4)CC3)nc(OCC(F)(F)F)n2)cc1)C(=O)O)C(=O)Nc1cn[nH]c1 [Compound 1354] | 0.01 to 10
Cn1cc(NC(=O)C(=O)NC[C@H](NC(=O)c2ccc(Nc3nc(NC4(c5ccc(Cl)cc5)CC4)nc(OCC(F)(F)F)n3)cc2)C(=O)O)cn1 [Compound 1356] | 0.01 to 10
O=C(NC[C@H](NC(=O)c1ccc(Nc2nc(NC3(c4ccc(Cl)cc4)CC3)nc(OCC(F)(F)F)n2)cc1)C(=O)O)C(=O)Nc1cccc(F)c1 [Compound 1357] | 0.01 to 10
COc1cccc(NC(=O)C(=O)NC[C@H](NC(=O)c2ccc(Nc3nc(NC4(c5ccc(Cl)cc5)CC4)nc(OCC(F)(F)F)n3)cc2)C(=O)O)c1 [Compound 1358] | 0.01 to 10
O=C(NC[C@H](NC(=O)c1ccc(Nc2nc(NC3(c4ccc(Cl)cc4)CC3)nc(OCC(F)(F)F)n2)cc1)C(=O)O)C(=O)Nc1cccc(C(F)(F)F)c1 [Compound 1359] | 0.01 to 10
Cc1ccc(NC(=O)C(=O)NC[C@H](NC(=O)c2ccc(Nc3nc(NC4(c5ccc(Cl)cc5)CC4)nc(OCC(F)(F)F)n3)cc2)C(=O)O)cc1 [Compound 1360] | 0.01 to 10
O=C(NC[C@H](NC(=O)c1ccc(Nc2nc(NC3(c4ccc(Cl)cc4)CC3)nc(OCC(F)(F)F)n2)cc1)C(=O)O)C(=O)Nc1ccccc1F [Compound 1361] | 0.01 to 10
